From patent US20100190711A1, “BIG GASTRIN I AS A THERAPEUTIC AGENT” (priority 2007, published 2010)
Where a SMILES comes first, the peptide text is derived from it. [ ]: non-standard residue; d: D form. pGlu = O=C1CC[C@@H](C(=O)O)N1

Tested on: drug-resistant Mycobacterium tuberculosis
Conditions: Mycobacterium tuberculosis resistant to PAS, streptomycin and INH; peptide 10 micrograms per ml; seven days

Structure (SMILES): CSCC[C@H](NC(=O)[C@H](Cc1c[nH]c2ccccc12)NC(=O)CNC(=O)[C@H](Cc1ccc(O)cc1)NC(=O)[C@H](C)NC(=O)[C@H](CCC(=O)O)NC(=O)[C@H](CCC(=O)O)NC(=O)[C@H](CCC(=O)O)NC(=O)[C@H](CCC(=O)O)NC(=O)[C@H](CCC(=O)O)NC(=O)[C@H](CC(C)C)NC(=O)[C@H](Cc1c[nH]c2ccccc12)NC(=O)[C@@H]1CCCN1C(=O)CNC(=O)[C@H](CCC(N)=O)NC(=O)[C@H](CCCCN)NC(=O)[C@H](CCCCN)NC(=O)[C@H](CO)NC(=O)[C@@H]1CCCN1C(=O)[C@H](CC(=O)O)NC(=O)[C@H](C)NC(=O)[C@@H](NC(=O)[C@H](CC(C)C)NC(=O)[C@H](Cc1c[nH]cn1)NC(=O)[C@@H]1CCCN1C(=O)[C@@H]1CCCN1C(=O)CNC(=O)[C@H](CCC(N)=O)NC(=O)[C@@H]1CCCN1C(=O)CNC(=O)[C@H](CC(C)C)NC(=O)[C@@H]1CCC(=O)N1)C(C)C)C(=O)N[C@@H](CC(=O)O)C(=O)N[C@@H](Cc1ccccc1)C(N)=O [Big Gastrin I] ([pGlu]LGPQGPPHLVADPSKKQGPWLEEEEEAYGWMDF-NH2)
- % inhibition: 100.0%
